Tests used:
Assay in all cases: In vitro inhibition, pathogens from tropical plants
Format in all cases: cell-based
B. heveas = test system: B. heveas
Protocol: (§1) 5 wt % formulation of the active compound of Formula (I) was prepared into a solution (300 mg/L). To a sterilized Erlenmeyer flask, 2 mL of the solution and 18 mL of PDA culture medium (50° C.) were added. The mixture was shaken uniformly and dumped into two dishes whose diameter was 9 cm to yield two toxic PDA culture mediums having a concentration of 30 mg/L. Various cultured pathogens were punched at the edge of colony by a puncher having a diameter of 5 mm respectively, and the obtained pieces were transferred to the center of the toxic PDA culture medium by an inoculating needle and cultured in an incubator at 25° C. Repeat the above steps. According to the growth status of CK colony, the colony diameter of pathogens was measured by crossing method with a caliper and thereby a corrected inhibition percentage was calculated.
(§2) For each colony, diameter was measured twice by crossing method and the average was practicable. The colony growth inhibition rate was calculated as follows: Colony growth inhibition rate %=(diameter of CK colony−diameter of target colony)×100/diameter of CK colony
(§3) Following the above method, as targets 17 pathogens originated from tropical plants were tested. The pathogens were Rhizopus sp., Aspergillus, Colletotrichum gloeosporioides Penz, Banana Fusarium wilt, Colletouichum coccodes, Hughas, B. heveas, Cucumber mosaic virusstrain banana, Banana Sigatoka Leaf Spot Disease, Colletotrichum gloeosporioides, Colletotrichum musae (Berk & Curt) Arx, Botryodiplodia theobromae, Cladosporium cucumerinum Ellis et Arthur, Periconia hevenae, Colletotrichum gloeosporioides, B. cinerea, Diplodia natalensis, and Curvularia.

[1] = test system: Cladosporium cucumerinum Ellis et Arthur
Protocol: as §1, §2, §3

[2] = test system: Banana Sigatoka Leaf Spot Disease
Protocol: as §1, §2, §3

[3] = test system: Colletotrichum gloeosporioides Penz
Protocol: as §1, §2, §3

[4] = test system: Botryodiplodia theobromae; details: Lasiodiplodia theobromae
Protocol: as §1, §2, §3

Banana Fusarium wilt = test system: Banana Fusarium wilt
Protocol: as §1, §2, §3

[5] = test system: Cucumber mosaic virusstrain banana
Protocol: as §1, §2, §3

Diplodia natalensis = test system: Diplodia natalensis
Protocol: as §1, §2, §3

Curvularia = test system: Curvularia
Protocol: as §1, §2, §3

[6] = test system: Colletotrichum gloeosporioides (first entry, r49)
Protocol: as §1, §2, §3

B. cinerea = details: Botrytis cinerea
Protocol: as §1, §2, §3

[7] = test system: Colletotrichum gloeosporioides (second entry, r74)
Protocol: as §1, §2, §3

Rhizopus sp. = test system: Rhizopus sp.
Protocol: as §1, §2, §3

[8] = 0.1 mg/L, read-out: Inhibition rate (%)
[9] = 1 mg/L, read-out: Inhibition rate (%)
[10] = 5 mg/L, read-out: Inhibition rate (%)
[11] = 10 mg/L, read-out: Inhibition rate (%)
[12] = 15 mg/L, read-out: Inhibition rate (%)
[13] = 20 mg/L, read-out: Inhibition rate (%)
[14] = 25 mg/L, read-out: Inhibition rate (%)
[15] = 50 mg/L, read-out: Inhibition rate (%)
[16] = 0.5 mg/L, read-out: Inhibition rate (%)

SMILES: CO/C=C(/C(=O)OC)c1ccccc1CSc1nc2cc(OC)ccc2s1 [Compound of Formula (I), (E)-methyl 3-methoxy-2-(2-((5-methoxy-benzothiazol-2-ylthio)methyl)phenyl)acrylate]
- EC50 (B. heveas): 1.99 µg/mL
- inhibition at 0.1 µg/mL (B. heveas; [8]): 9.09%
- inhibition at 1 µg/mL (B. heveas; [9]): 43.9%
- inhibition at 5 µg/mL (B. heveas; [10]): 61.4%
- inhibition at 10 µg/mL (B. heveas; [11]): 70.5%
- inhibition at 15 µg/mL (B. heveas; [12]): 81.4%
- EC50 [1]: 4.84 µg/mL
- inhibition at 1 µg/mL [1, 9]: 6.77%
- inhibition at 2.5 µg/mL ([1]; 2.5 mg/L, read-out: Inhibition rate (%)): 28.3%
- inhibition at 5 µg/mL [1, 10]: 55%
- inhibition at 10 µg/mL [1, 11]: 72.1%
- inhibition at 20 µg/mL [1, 13]: 84.9%
- EC50 [2]: 1.5 µg/mL
- inhibition at 0.1 µg/mL [2, 8]: 17.2%
- inhibition at 1 µg/mL [2, 9]: 43.5%
- inhibition at 5 µg/mL [2, 10]: 63.7%
- inhibition at 10 µg/mL [2, 11]: 77.9%
- inhibition at 20 µg/mL [2, 13]: 85.8%
- EC50 [3]: 4.63 µg/mL
- inhibition at 0.1 µg/mL [3, 8]: 16.7%
- inhibition at 1 µg/mL [3, 9]: 31.1%
- inhibition at 5 µg/mL [3, 10]: 50.2%
- inhibition at 10 µg/mL [3, 11]: 54.9%
- inhibition at 25 µg/mL [3, 14]: 69.3%
- inhibition at 50 µg/mL [3, 15]: 80.9%
- EC50 [4]: 3.7 µg/mL
- inhibition at 0.5 µg/mL [4, 16]: 14.6%
- inhibition at 1 µg/mL [4, 9]: 31.7%
- inhibition at 5 µg/mL [4, 10]: 51.6%
- inhibition at 10 µg/mL [4, 11]: 65.8%
- inhibition at 20 µg/mL [4, 13]: 84%
- EC50 (Banana Fusarium wilt): 9.22 µg/mL
- inhibition at 1 µg/mL (Banana Fusarium wilt; [9]): 13.5%
- inhibition at 5 µg/mL (Banana Fusarium wilt; [10]): 30.2%
- inhibition at 10 µg/mL (Banana Fusarium wilt; [11]): 60.5%
- inhibition at 25 µg/mL (Banana Fusarium wilt; [14]): 67.6%
- inhibition at 50 µg/mL (Banana Fusarium wilt; [15]): 80.4%
- EC50 [5]: 1.92 µg/mL
- inhibition at 0.1 µg/mL [5, 8]: 9.84%
- inhibition at 1 µg/mL [5, 9]: 40.2%
- inhibition at 5 µg/mL [5, 10]: 62.3%
- inhibition at 10 µg/mL [5, 11]: 76.6%
- inhibition at 15 µg/mL [5, 12]: 84.8%
- EC50 (Diplodia natalensis): 1.7 µg/mL
- inhibition at 0.1 µg/mL (Diplodia natalensis; [8]): 20.7%
- inhibition at 1 µg/mL (Diplodia natalensis; [9]): 40.2%
- inhibition at 5 µg/mL (Diplodia natalensis; [10]): 60.7%
- inhibition at 10 µg/mL (Diplodia natalensis; [11]): 73.7%
- inhibition at 20 µg/mL (Diplodia natalensis; [13]): 82.3%
- EC50 (Curvularia): 0.505 µg/mL
- inhibition at 0.1 µg/mL (Curvularia; [8]): 28.8%
- inhibition at 1 µg/mL (Curvularia; [9]): 63.5%
- inhibition at 5 µg/mL (Curvularia; [10]): 75.9%
- inhibition at 10 µg/mL (Curvularia; [11]): 76.6%
- inhibition at 15 µg/mL (Curvularia; [12]): 80.6%
- EC50 [6]: 1.97 µg/mL
- inhibition at 0.1 µg/mL [6, 8]: 18.2%
- inhibition at 1 µg/mL [6, 9]: 42.4%
- inhibition at 5 µg/mL [6, 10]: 55.9%
- inhibition at 10 µg/mL [6, 11]: 69.4%
- inhibition at 20 µg/mL [6, 13]: 83.2%
- EC50 (B. cinerea): 1 µg/mL
- inhibition at 0.1 µg/mL (B. cinerea; [8]): 12.8%
- inhibition at 0.5 µg/mL (B. cinerea; [16]): 35.1%
- inhibition at 1 µg/mL (B. cinerea; [9]): 54.5%
- inhibition at 5 µg/mL (B. cinerea; [10]): 73.3%
- inhibition at 10 µg/mL (B. cinerea; [11]): 88.1%
- EC50 [7]: 6.92 µg/mL
- inhibition at 0.1 µg/mL [7, 8]: 7.12%
- inhibition at 1 µg/mL [7, 9]: 19.3%
- inhibition at 5 µg/mL [7, 10]: 33.8%
- inhibition at 10 µg/mL [7, 11]: 55.2%
- inhibition at 20 µg/mL [7, 13]: 87.2%
- EC50 (Rhizopus sp.): 4.18 µg/mL
- inhibition at 1 µg/mL (Rhizopus sp.; [9]): 18.4%
- inhibition at 5 µg/mL (Rhizopus sp.; [10]): 53.1%
- inhibition at 10 µg/mL (Rhizopus sp.; [11]): 69.3%
- inhibition at 15 µg/mL (Rhizopus sp.; [12]): 83.6%
- inhibition at 20 µg/mL (Rhizopus sp.; [13]): 88.5%
